EP0386258A1, “TETRAHYDROPYRIDINE DERIVATIVES” (Asahi Kasei Kabushiki Kaisha, priority 1988, dated 1990)
Structures can show the parent of a compound that is named as a salt.

Legend:
[1] = test system: akinesia of mice during forced swimming; experiment: mill wheel test (forced swimming), psychoanaleptic activity; assay type: in vivo
Protocol: This test was conducted in the following manner according to a method described in S. Nomura et al., Eur. J. Pharmacol., 83, 171 - 175 (1982).
Activities of each drug on the akinesia of mice during forced swimming were examined by a mill wheel test. Now the meaning of this test will be described. The akinesia observed during forced swimming of mice may be regarded as emotional disturbance since the animals resign escaping from the narrow environment (device) as the result of learning. It has been known that this akinesia can be shortened by drugs having psychoanaleptic effects such as antidepressants or MAO inhibitors. Namely, each drug was orally administered to a mouse. 40 minutes after the administration, the mouse was introduced into a water tank provided with a mill wheel and contained water at 25 °C. Then, the number of rotations of the wheel was counted throughout the observation period (6 minutes). However, P-CC2 was subcutaneously administered to avoid decomposition in digestive organ and the examination was conducted for 15 minutes thereafter (see Margaret M. Schweri, Joseph V. Martin, Wallace B. Mendelson, James E. Barrett, Steven M. Paul and Phil Skolnick, Life Science, 1505-1510, 33 (1983) and P. Skolnick, M. M. Schweri, S. M. Paul, J. V. Martin and W. B. Mendelson, Life Science, 2439-2445, 32 (1983)).

[2] = test system: male Wister rats; experiment: water lick conflict test, antianxiety activity (shocked number); assay type: in vivo; details: electric shocks within 5 minutes, no-drug rat defined as 100 (n = 5)
Description: (§1) The antianxiety activity and learning improvement activity of the compounds of the present invention were examined by using male Wister rats aged 6 weeks by a water lick conflict test by reference to a method described by Vogel J. R., Beer B. and Clody D. E. described in Psvcho^pharmacolo^qia, 1 - 7, 21 (1971).
(§2) In this test, rats having abstained from water were used and an electric shock was applied to the animals every time they drank water to bring the rats into an anxious state. Thus the activity of medicaments to the rats were determined.
Rats, having abstained from water for 24 hours prior to the test, were allowed to access to water. After 4 to 5 hours, a drug was administered to the animals. After a definite treatment period, the test was initiated. The shocked number means the number of electric shocks applied to the rats within 5 minutes after initially allowing them to access to water. […] That is, an increase in the shocked number means that the antianxiety activity is increased.

[3] = test system: male Wister rats; experiment: water lick conflict test, learning improvement activity (latent time); assay type: in vivo; details: time until first drinking water, average of no-drug rats defined as 100 (n = 5)
Description: as §1, §2
This test was conducted simultaneously with the measurement of the antianxiety activity (2) and aims at measuring the latent time when the rats abstinence from water first began to drink water.
A longer latent time means the higher learning improvement activity.

[4] = subacute toxicity, oral administration for 35 days; details: rat, in vivo
Protocol: (§3) Subacute toxicities of N-(2-aminoethyl)benzo[b]thieno-[2,3-c]pyridine-3-carboamide (A-6) and N-cyclohexyl-1,2,3,4-tetrahydrobenzo[b]thieno[2,3-c]pyridine-3-carboamide (A-9) were tested by orally administering these compounds to Wistar rats for 35 days. The test was conducted in the following manner.
(§4) Each compound was compulsory orally administered to Wistar SPF rats once a day between 9.00 a.m. to 11:30 a.m. by using a 2 ml or 5 ml disposable syringe and a rat gastric sound for 35 days continuously. Syringes were exchanged for each dose and for each compound. The administration period was determined by referring the initial day of the administration as to 0 day.

[5] = test system: Wistar rats; experiment: subacute toxicity, oral administration for 35 days; details: rat, in vivo
Protocol: as §3, §4

[6] = 60 mg/kg orally, 40 minutes after administration, observation period 6 minutes, water at 25 °C

Compound	Shocked Number ([2]; 40 mg/kg P.O.)	Latent Time ([3]; 40 mg/kg P.O.)	Numbers of Rotations of Wheel [1, 6]	also measured
CCOC(=O)c1cc2c(cn1)[nH]c1ccccc12 [β-CCE, β-carboline-3-carboxylic acid ethyl ester]	82.9±20.0	312±38.2	–	Numbers of Rotations of Wheel ([1]; 10 mg/kg subcutaneously, examination 15 minutes thereafter): 23.6±4.1
O=C(NC1CCCCC1)C1Cc2c(sc3ccccc23)CN1 (centres unmarked) [Compound A-9, N-cyclohexyl-1,2,3,4-tetrahydrobenzo[b]thieno-[2,3-c]pyridine-3-carboamide hydrochloride]	–	–	37.1±8.0	Shocked Number ([2]; 30 mg/kg P.O.): 389±41; Latent Time ([3]; 30 mg/kg P.O.): 350±32; NOAEL at 840 h ([4]; Safe Dose): 200 mg/kg; NOAEL at 840 h ([4]; Subeffective Dose): 50 mg/kg; Toxic (lethal) Dose [5]: 800 mg/kg
O=C(c1cc2c(cn1)sc1ccccc12)N1CCOCC1 [Compound A-5, 4-(benzo[b]thieno[2,3-c]pyridine-3-carbonyl)morpholine]	–	–	21.3±4.0	–
CCNC(=O)C1Cc2c(sc3ccccc23)CN1 (centres unmarked) [Compound A-7, N-ethyl-1,2,3,4-tetrahydrobenzo[b]thieno(2,3-c]pyridine-3-carboamide]	127.1±31.5	232±34.7	19.3±8.1	–
CCCCCCNC(=O)C1Cc2c(sc3ccccc23)CN1 (centres unmarked) [Compound A-8, N-hexyl-1,2,3,4-tetrahydrobenzo[b]-thieno[2,3-c]pyridine-3-carboamide]	111.8±28.6	249±36.6	20.9±7.6	–
O=C(c1cc2c(cn1)sc1ccccc12)N1CCCCC1 [Compound A-4, 1-(benzo[b]thieno[2,3-c]pyridine-3-carbonyl)piperidine]	–	–	24.7±3.9	–
CCOC(=O)C1Cc2c(sc3ccccc23)CN1 (centres unmarked) [Compound A-2, l,2,3,4-tetrahydrobenzo[b]thieno[2,3-c]pyridine-3-carboxylic acid ethyl ester]	–	–	26.5±2.9	–
NCCNC(=O)c1cc2c(cn1)sc1ccccc12 [Compound A-6, N-(2-aminoethyl)benzo[b]thieno[2,3-c]pyridine-3-carboamide]	–	–	25.4±9.1	NOAEL at 840 h ([4]; Safe Dose): 50 mg/kg; NOAEL at 840 h ([4]; Subeffective Dose): 50 mg/kg; Toxic (lethal) Dose [5]: 200 mg/kg
CCOC(=O)c1cc2c(cn1)sc1ccccc12 [Compound A-1, benzo[b]thieno[2,3-c]pyridine-3-carboxylic acid ethyl ester]	117.1±25.7	132±29.9	23.4±6.8	–
Clc1ccc2sc3c(c2c1)CCNC3 [Compound C-1, 6-chloro-1,2,3,4-tetrahydrobenzo[b]-thieno[2,3-c]pyridine]	104.3±28.6	128±19.6	24.3±4.3	–
O=C(c1cc2c(cn1)sc1ccccc12)N1CCCNCC1 [Compound A-3, hexahydro-l-(benzo[b]-thieno[2,3-c]pyridine-3-carbonyl)-lH-1,4-diazepine]	–	–	22.4±6.7	–
